“And” between values parts separate entries of the source, which are not always exact repeats. Equal values may be shown once. Marks after values point to notes of the source that are not given here.
What was measured:
[1] = tested on: Caco-2 cell monolayer; assay: Transport of TMFs across Caco-2 cell monolayer, apical to basolateral; format: in vitro ADME, human; conditions: 300 μg/mL TMF loaded on apical side, mean ± S.D
Protocol: (§1) Caco-2 cells were cultured in Dulbecco’s modified Eagle’s medium (DMEM; GIBCO, Carlsbad, CA, USA) supplemented with 10% fetal bovine serum (GIBCO), 1% nonessential amino acid solution, and antibiotics (100 U/mL penicillin and 100 µg/mL streptomycin from GIBCO) with a minor modification according to Lu. Cells were grown in an incubator with 5% CO2 and 95% humidity at 37 °C, with medium replaced every 2–3 days. The tests were carried out using cells from passages 25–35. Transwell inserts with a polycarbonate membrane (diameter 1.2 cm, pore size 0.4 μm; Corning Costar Co., Corning, NY, USA) were used in 12-well plates. Caco-2 cells were planted at 5 × 10^5 cells/cm^2 on the membrane inserts, and 0.5 and 1.5 mL of culture media were placed on the apical and basolateral sides, respectively. The medium was changed three times a week, and the Caco-2 cells used in the studies had been cultured in the Transwells for approximately 21 days. The integrity of the cell layer was assessed using Millicell ERS equipment by measuring transepithelial electrical resistance (TEER) values (Millipore Co., Bedford, MA, USA). Monolayers with TEER values greater than 400 Ωcm^2 were used for transport and absorption studies.
(§2) Transport experiments were conducted using modified methodologies from the literature. Before adding the test solution, the apical and basolateral sides of the Coco-2 cell monolayer grown in Transwell inserts were washed three times with Hank’s balanced salt solution (GIBCO). The apical-to-basolateral permeability was measured by adding 0.5 mL of the test solution containing 300 μg/mL TMFs and 1.5 mL of HBSS to the apical and basolateral sides, respectively, and incubating at 37 °C for 0.5, 1, 2, and 4 h. The concentration of TMF utilized was determined using the Caco-2 cell viability test findings. TMF was dissolved and diluted with HBSS before the experiment began. The apical and basolateral solutions were collected after incubation for 0.5, 1, 2, and 4 h, and the concentration of TMF was determined using LC-MS. The apparent permeability coefficient (Papp in cm/s) was calculated over a four-hour duration using Equation (1):Papp = (V/AC0) × (dC/dt)(1) where V is the volume of solution on the basolateral side (1.5 mL); A is the membrane surface area (1.12 cm^2); C0 is the initial concentration on the apical side; and dC/dt is the change in concentration in the basolateral side over time.
(§3) The transport efficiency (%) was calculated using Equation (2):Transport efficiency (%) = (Cbs)/(Cas) × 100 (%)(2) where Cbs is the concentration of TMF transported in the basolateral side; and Cas is the initial concentration of TMF added to the apical side.

[2] = as above; format: in vitro ADME, human; conditions: human, Caco-2, calculated over four hours, read-out: apparent permeability coefficient (Papp)
Protocol: as §1, §2, §3

[3] = target: CYP3A4 (Homo sapiens, UniProt P08684); assay: CYP inhibition assay (P450 Baculosomes/Vivid substrate, fluorescence), 10-dose IC50
Sequence of CYP3A4 (P08684 2-503 limits assumed): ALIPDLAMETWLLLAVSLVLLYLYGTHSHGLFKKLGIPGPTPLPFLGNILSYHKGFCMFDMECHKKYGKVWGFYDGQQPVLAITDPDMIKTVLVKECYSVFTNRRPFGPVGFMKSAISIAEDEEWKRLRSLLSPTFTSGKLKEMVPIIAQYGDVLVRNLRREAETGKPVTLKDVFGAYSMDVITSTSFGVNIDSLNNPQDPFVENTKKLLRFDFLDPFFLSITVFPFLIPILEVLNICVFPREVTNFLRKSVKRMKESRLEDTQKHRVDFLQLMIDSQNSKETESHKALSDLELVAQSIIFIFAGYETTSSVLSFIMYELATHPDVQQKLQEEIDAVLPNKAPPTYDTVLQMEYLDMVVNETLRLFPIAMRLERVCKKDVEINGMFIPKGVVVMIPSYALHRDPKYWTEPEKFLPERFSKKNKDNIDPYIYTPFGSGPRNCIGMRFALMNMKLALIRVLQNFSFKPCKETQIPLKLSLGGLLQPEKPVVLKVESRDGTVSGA

[4] = target: T1, CYP2D6 (Homo sapiens, UniProt P10635); assay: as above; format: biochemical; conditions: mean ± S.D.; ND: Not Detected
T1 construct: purchased Invitrogen Corp. (Madison, WI, USA); host or cells: insect cells (baculovirus)
T1 sequence (P10635 whole entry): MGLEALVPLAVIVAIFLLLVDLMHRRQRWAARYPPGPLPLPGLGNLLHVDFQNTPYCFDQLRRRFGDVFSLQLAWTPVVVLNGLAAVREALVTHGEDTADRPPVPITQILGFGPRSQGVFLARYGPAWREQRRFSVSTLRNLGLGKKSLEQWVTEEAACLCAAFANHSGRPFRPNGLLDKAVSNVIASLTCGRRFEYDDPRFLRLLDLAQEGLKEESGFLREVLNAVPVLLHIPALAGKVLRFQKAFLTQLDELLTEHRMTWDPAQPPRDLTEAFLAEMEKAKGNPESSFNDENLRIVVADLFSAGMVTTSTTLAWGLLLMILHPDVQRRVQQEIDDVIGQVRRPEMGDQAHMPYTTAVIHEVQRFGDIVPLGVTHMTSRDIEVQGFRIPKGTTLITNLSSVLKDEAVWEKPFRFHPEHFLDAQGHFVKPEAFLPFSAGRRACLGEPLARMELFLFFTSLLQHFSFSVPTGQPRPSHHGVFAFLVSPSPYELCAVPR

[5] = target: T2, CYP2C19 (Homo sapiens, UniProt P33261); assay: as above; format: biochemical; conditions: mean ± S.D.; ND: Not Detected
T2 construct: purchased Invitrogen Corp. (Madison, WI, USA); host or cells: insect cells (baculovirus)
T2 sequence (P33261 whole entry): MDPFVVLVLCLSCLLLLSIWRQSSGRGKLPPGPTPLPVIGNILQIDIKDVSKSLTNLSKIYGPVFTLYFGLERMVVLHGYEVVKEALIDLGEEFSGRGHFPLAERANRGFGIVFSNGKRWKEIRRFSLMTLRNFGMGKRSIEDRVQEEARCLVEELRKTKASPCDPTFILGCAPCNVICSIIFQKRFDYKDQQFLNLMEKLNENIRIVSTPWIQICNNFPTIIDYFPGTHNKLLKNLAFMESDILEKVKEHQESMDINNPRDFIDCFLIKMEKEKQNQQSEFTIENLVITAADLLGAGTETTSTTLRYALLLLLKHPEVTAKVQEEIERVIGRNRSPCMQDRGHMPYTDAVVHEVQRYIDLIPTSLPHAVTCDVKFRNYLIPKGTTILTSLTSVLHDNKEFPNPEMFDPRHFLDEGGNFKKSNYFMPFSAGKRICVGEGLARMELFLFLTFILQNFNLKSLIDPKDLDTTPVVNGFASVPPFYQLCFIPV

[6] = target: T3, CYP1A2 (Homo sapiens, UniProt P05177); assay: as above
T3 sequence (P05177 2-516 limits assumed): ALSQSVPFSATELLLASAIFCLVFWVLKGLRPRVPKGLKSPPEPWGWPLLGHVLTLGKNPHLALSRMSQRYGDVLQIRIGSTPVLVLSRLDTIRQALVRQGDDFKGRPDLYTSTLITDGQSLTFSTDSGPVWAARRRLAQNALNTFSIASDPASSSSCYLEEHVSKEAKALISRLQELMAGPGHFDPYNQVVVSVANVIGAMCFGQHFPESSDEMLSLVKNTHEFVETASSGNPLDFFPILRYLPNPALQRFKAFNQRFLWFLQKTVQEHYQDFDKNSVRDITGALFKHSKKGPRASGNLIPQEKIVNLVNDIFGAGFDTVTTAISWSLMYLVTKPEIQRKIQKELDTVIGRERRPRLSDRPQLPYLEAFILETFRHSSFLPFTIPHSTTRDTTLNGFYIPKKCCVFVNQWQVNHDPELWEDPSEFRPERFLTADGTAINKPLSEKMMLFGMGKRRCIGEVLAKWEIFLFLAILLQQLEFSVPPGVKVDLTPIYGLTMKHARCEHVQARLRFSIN

[7] = target: CYP2C9 (Homo sapiens, UniProt P11712); assay: as above
Sequence of CYP2C9 (P11712 whole entry): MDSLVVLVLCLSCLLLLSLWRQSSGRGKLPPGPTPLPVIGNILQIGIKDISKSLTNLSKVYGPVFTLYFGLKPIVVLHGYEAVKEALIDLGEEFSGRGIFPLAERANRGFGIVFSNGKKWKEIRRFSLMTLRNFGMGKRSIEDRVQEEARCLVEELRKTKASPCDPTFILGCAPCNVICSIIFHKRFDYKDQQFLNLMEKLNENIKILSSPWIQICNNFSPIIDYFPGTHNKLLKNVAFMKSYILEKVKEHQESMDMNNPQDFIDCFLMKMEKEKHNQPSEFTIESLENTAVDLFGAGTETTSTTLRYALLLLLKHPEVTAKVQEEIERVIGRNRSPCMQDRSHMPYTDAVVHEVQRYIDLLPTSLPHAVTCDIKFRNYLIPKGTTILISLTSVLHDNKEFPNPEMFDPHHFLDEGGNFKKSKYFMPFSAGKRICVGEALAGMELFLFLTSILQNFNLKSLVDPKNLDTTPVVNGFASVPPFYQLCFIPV

[8] = tested on: cytochrome P450s (CYP) 1A2; design: method as in PMID 22056445; conditions: in vitro; read-out: IC50 against CYP1A2; cited from earlier work
[9] = tested on: cytochrome P450s (CYP) 3A4; design: method as in PMID 22056445; conditions: in vitro; read-out: IC50 against CYP3A4; cited from earlier work
[10] = tested on: CYP1A2, CYP2C9, CYP2C19 (range over the three); assay: CYP inhibition assay, summary over the enzyme panel; format: biochemical; conditions: human, probe Vivid substrates; range over CYP1A2, 2C9 and 2C19; dose-dependent

| SMILES | Transport Efficiency (%) ([1]; 1 h) | Transport Efficiency (%) ([1]; 2 h) | Transport Efficiency (%) ([1]; 4 h) | Papp at 4 h, 300 μg/mL [2] | IC50 [3] | IC50 [4] | IC50 [5] | IC50 [6] | IC50 [7] | IC50 [8] | IC50 [9] | IC50 at 25 min [10] |
| --- | --- | --- | --- | --- | --- | --- | --- | --- | --- | --- | --- | --- |
| COc1ccc2oc(-c3cc(OC)c(OC)cc3OC)c(O)c(=O)c2c1 [3H6-TMF, 3-hydroxy-2′,4′,5′,6-tetramethoxyflavone] | 25.42 ± 1.92 ^c % | 33.27 ± 2.59 ^b % | 39.43 ± 2.50% and 39% and 39.43 ± 3.50 ^a % | 17.4 ×10⁻⁶ cm/s | 0.44 ± 0.12 µM | 95.5 ± 3.21 µM | 10.2 ± 2.47 µM | 20.6 ± 0.98 µM | 8.03 ± 3.75 µM | – | – | – |
| COc1ccc2c(=O)c(O)c(-c3cc(OC)c(OC)cc3OC)oc2c1 [3H7-TMF, 3-hydroxy-2′,4′,5′,7-tetramethoxyflavone] | 37.82 ± 0.07 ^c % | 41.96 ± 1.14 ^b % | 46% and 46.29 ± 2.16 ^a % | 19.5 ×10⁻⁶ cm/s | 0.15 ± 0.07 µM | 2.28 ± 0.46 µM | 14.8 ± 3.15 µM | 15.5 ± 1.95 µM | 18.3 ± 8.93 µM | – | – | – |
| COc1cc(-c2cc(=O)c3c(O)c(OC)c(OC)c(OC)c3o2)ccc1O [8-methoxycirsilineol, 4′,5-dihydroxy-3′,6,7,8-tetramethoxy flavone] | – | – | – | – | – | – | – | – | – | 2.41 µM | 1.71 µM | – |
| COc1cc(OC)c2c(=O)cc(-c3ccc(OC)c(OC)c3)oc2c1 [57-TMF, 3′,4′,5,7-tetramethoxyflavone] | 22.48 ± 3.90 ^c % | 33.03 ± 0.46 ^b % | 34.00 ± 0.01% and 34.00 ± 1.81 ^ab % | 14.3 ×10⁻⁶ cm/s | 3.56 ± 1.23 µM | – | – | 35.6 ± 12.3 µM | 62.5 ± 2.12 µM | – | – | – |
| COc1ccc(-c2cc(=O)c3ccc(OC)c(OC)c3o2)cc1OC [78-TMF, 3′,4′,7,8-tetramethoxyflavone] | 30.49 ± 0.05 ^c** % | 33.98 ± 0.75 ^b % | 37.58 ± 0.11% and 37.58 ± 2.11 ^a % | 8.83 ×10⁻⁶ cm/s | 108 ± 6.31 µM | – | 1.85 ± 0.14 µM | 0.79 ± 0.12 µM | 1.49 ± 0.16 µM | – | – | 0.79 to 1.85 µM |
